System: SARS-CoV-2 variants (D614G, UK B.1.1.7, SA B.1.351, Brazil P.1)
Type: cell-based

SMILES | reduction of SARS-CoV-2 variant titers
O=C([O-])CCN1C(=O)/C(=C/c2ccc(-c3ccc([N+](=O)[O-])cc3)o2)SC1=S.[K+] [KYA1797K] | 85-96%
Cc1cc(/C=C/c2ccc3cc(N(C)C)ccc3[n+]2C)c(C)n1-c1ccccc1 [Pyrvinium] | 77-96%
